From patent publication EP4592286A1, “MACROCYCLIC NITROGEN-CONTAINING CROWN ETHER COMPOUND AND USE THEREOF AS PROTEIN KINASE INHIBITOR” (Artivila Biopharma, priority 2022, dated 2024)

Legend:
Format in all cases: biochemical
[1] = biological target: TYK2 (Homo sapiens, UniProt P29597); assay: experiment of inhibiting kinase activity, TYK2; conditions: read-out: inhibition rate TYK2; for inhibition at 0.01 µM: at 10 nM; for inhibition at 0.1 µM: at 100 nM
Method: The inhibition rates of tested compounds on JAK1, JAK2, JAK3, TYK2, CDK7, CDK9, EGFR (T790M) and LRRK2 kinases were measured. The test concentrations of the compounds were 10 nM and 100 nM, and the detection was performed by replicate wells. Alternatively, compounds were 3-fold serial diluted from 10 µM for 10 concentrations in replicate wells.

[2] = biological target: CDK7 (Homo sapiens, UniProt P50613); assay: experiment of inhibiting kinase activity (Caliper mobility shift assay), CDK7; conditions: read-out: inhibition rate CDK7; for inhibition at 0.1 µM: at 100 nM
Summary of the method: (§1)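 Mobility-shift readout of substrate conversion; % inhibition normalized to uninhibited-enzyme wells (0%) and buffer-only background wells. Dosing: single points at 10 and 100 nM, or 3-fold series from 10 µM (10 conc.), replicates. Kinase + compound 10 min RT, then ATP/substrate.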

[3] = biological target: T1, JAK3 (Homo sapiens, UniProt P52333); assay: experiment of inhibiting kinase activity (Caliper mobility shift assay), JAK3; conditions: for inhibition at 0.01 µM: at 10 nM; for inhibition at 0.01 µM / inhibition at 0.1 µM: read-out: inhibition rate JAK3; for inhibition at 0.1 µM: at 100 nM
T1 sequence (P52333 1-1124): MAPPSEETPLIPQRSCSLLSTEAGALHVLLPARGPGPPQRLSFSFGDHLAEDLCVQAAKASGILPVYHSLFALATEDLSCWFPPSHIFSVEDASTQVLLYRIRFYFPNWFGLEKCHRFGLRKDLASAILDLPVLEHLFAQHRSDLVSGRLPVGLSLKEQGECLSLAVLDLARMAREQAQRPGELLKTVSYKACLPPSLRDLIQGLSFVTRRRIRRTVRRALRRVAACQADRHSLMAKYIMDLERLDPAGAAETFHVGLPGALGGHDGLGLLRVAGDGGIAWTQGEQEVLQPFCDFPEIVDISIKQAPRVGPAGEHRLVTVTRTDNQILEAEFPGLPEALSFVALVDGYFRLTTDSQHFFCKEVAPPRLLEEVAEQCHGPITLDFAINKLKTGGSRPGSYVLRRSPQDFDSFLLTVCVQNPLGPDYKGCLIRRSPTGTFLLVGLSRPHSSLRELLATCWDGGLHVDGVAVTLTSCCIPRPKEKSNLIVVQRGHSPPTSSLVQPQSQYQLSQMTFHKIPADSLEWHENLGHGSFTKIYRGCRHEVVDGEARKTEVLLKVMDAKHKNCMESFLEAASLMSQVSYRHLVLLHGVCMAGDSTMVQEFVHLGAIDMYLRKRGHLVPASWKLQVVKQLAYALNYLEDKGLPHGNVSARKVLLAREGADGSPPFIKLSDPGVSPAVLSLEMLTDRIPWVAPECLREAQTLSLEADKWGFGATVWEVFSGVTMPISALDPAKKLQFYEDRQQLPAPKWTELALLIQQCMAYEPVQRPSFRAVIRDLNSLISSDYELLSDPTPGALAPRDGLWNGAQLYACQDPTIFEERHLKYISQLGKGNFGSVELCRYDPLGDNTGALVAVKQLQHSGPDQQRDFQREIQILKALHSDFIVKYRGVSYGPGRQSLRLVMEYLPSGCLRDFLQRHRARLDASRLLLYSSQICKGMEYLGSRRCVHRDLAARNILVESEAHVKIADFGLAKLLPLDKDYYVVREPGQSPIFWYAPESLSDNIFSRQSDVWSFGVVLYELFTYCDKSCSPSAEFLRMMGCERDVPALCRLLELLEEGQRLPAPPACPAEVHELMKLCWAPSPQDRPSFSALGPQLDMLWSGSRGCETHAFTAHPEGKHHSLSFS
Summary of the method: as §1

TYK2, sequence (P29597 whole entry): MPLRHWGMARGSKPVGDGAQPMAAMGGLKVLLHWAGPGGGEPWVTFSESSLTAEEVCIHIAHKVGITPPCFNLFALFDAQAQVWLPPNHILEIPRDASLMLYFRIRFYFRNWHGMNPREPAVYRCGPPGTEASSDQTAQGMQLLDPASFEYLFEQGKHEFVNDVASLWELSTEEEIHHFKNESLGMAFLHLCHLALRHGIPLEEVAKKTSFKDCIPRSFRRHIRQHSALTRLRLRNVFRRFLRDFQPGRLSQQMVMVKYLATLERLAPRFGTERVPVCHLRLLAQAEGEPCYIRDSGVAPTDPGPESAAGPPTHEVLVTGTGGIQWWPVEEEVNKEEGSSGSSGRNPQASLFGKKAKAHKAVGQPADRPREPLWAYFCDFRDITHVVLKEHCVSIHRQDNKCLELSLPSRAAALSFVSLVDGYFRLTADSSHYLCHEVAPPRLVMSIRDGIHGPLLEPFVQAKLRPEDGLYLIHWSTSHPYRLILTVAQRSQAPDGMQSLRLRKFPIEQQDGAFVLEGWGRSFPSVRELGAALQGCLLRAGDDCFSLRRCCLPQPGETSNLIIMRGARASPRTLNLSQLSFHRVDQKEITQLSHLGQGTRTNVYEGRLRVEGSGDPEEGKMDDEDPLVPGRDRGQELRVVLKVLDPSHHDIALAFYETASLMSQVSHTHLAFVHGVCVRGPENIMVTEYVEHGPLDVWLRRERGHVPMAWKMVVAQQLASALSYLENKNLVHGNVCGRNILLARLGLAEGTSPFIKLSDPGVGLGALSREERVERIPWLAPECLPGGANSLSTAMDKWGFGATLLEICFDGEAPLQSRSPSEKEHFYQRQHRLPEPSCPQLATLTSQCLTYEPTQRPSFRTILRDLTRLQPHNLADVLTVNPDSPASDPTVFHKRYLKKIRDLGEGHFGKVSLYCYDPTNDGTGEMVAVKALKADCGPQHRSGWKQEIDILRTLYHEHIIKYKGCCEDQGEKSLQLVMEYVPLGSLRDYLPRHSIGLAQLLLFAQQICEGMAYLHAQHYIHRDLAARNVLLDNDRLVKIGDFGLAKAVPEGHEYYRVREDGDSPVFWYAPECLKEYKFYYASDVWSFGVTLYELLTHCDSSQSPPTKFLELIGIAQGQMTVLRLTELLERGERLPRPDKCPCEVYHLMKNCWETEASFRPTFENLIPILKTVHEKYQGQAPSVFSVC
CDK7, sequence (P50613 whole entry, species assumed): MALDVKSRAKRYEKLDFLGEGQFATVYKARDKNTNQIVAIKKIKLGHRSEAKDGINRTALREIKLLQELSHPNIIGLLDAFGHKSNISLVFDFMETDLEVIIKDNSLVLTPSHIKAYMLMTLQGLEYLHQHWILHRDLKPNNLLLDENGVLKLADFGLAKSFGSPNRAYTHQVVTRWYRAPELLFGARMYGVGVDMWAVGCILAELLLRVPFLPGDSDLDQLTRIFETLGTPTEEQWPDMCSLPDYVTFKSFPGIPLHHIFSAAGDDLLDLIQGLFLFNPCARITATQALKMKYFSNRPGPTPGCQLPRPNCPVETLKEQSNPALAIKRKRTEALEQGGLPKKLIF
CDK7, sequence (P51946 whole entry partner, species assumed): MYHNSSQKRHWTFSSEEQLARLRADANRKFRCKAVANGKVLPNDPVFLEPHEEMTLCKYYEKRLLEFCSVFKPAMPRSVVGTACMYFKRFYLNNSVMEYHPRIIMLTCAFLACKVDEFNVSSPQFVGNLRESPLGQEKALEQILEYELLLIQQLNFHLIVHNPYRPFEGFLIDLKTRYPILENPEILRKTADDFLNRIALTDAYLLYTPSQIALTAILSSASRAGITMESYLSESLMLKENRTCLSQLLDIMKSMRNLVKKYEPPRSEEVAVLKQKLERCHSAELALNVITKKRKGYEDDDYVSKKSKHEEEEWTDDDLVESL
CDK7, sequence (P51948 whole entry partner, species assumed): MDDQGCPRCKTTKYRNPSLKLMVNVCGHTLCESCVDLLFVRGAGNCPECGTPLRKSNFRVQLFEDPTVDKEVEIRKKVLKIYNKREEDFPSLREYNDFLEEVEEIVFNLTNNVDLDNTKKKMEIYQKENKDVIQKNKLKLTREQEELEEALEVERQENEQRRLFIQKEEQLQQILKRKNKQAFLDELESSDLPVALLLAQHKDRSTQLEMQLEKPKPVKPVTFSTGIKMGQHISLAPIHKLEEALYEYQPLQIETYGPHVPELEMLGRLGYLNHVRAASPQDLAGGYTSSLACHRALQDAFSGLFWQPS

## CN1CCOCCOc2cc(Nc3nc(-c4cnn(C(CC#N)C5CCCC5)c4)c4cc[nH]c4n3)ccc2OCC1 (stereo not drawn) [Example 26, 3-cyclopentyl-3-(4-(2-((7-methyl-2,3,6,7,8,9-hexahydro-5H-benzo[b][1,4,7]trioxa[10]azacyclododecan-13-yl)amino)-7H-pyrrolo[2,3-d]pytimidin-4-yl)-1H-pyrazol-1-yl)propionitrile]
[1]
  inhibition at 0.01 µM: > 80%
  inhibition at 0.1 µM: > 80%
[2]
  inhibition at 0.1 µM: 40 to 79%
[3]
  inhibition at 0.01 µM: > 80%
  inhibition at 0.1 µM: > 80%

## CN1CCOCCOc2cc(Nc3ncc(F)c(-c4ccc(C(=O)NCC#N)cc4)n3)ccc2OCC1 [Example 16, N-(cyanomethyl)-4-(5-fluoro-2-((7-methyl-2,3,6,7,8,9-hexahydro-5H-benzo[b][1,4,7]trioxa[10]azacyclododecan-13-yl)amino)pyrimidin-4-yl)benzamide]
[1]
  inhibition at 0.01 µM: 40 to 79%
  inhibition at 0.1 µM: > 80%
[2]; at 10 nM
  inhibition at 0.01 µM: 25 to 39%
[2]
  inhibition at 0.1 µM: > 80%
[3]
  inhibition at 0.01 µM: 40 to 79%
  inhibition at 0.1 µM: > 80%
[3]; kinase activity assay, Table 3
  IC50: < 0.05 µM
